Experimental data published in the NIST ThermoML archive (doi:10.1016/j.jct.2017.03.026).
Where “and” joins values, the source holds several entries; their conditions need not be identical. Identical values can stand only once.

Experiment: molar heat capacity at constant pressure
Conditions: 101.33 kPa, Crystal, Small (less than 1 g) adiabatic calorimetry

O.O.O.O.O.O=S(=O)([O-])[O-].[Cu+2] [copper(II) sulfate pentahydrate]
Conditions | molar heat capacity at constant pressure
287.75 K | 289.04 J/K/mol
287.82 K | 289.61 J/K/mol
288.14 K | 289.34 J/K/mol
288.18 K | 290.46 J/K/mol
288.42 K | 289.31 J/K/mol
288.47 K | 290.31 J/K/mol
288.59 K | 291.83 J/K/mol
288.8 K | 291.86 J/K/mol
289.09 K | 290.24 J/K/mol
289.13 K | 293.01 J/K/mol
289.48 K | 297.45 J/K/mol
289.75 K | 292.88 J/K/mol
289.76 K | 282.28 J/K/mol and 282.25 J/K/mol and 292.61 J/K/mol
289.83 K | 290.48 J/K/mol
290 K | 282.3 J/K/mol
290.23 K | 291.98 J/K/mol
290.44 K | 291.33 J/K/mol
290.57 K | 288.74 J/K/mol
290.91 K | 292.31 J/K/mol and 292.23 J/K/mol
291.11 K | 292.78 J/K/mol and 291.01 J/K/mol
291.26 K | 298.2 J/K/mol
291.62 K | 292.93 J/K/mol
291.78 K | 291.86 J/K/mol
291.96 K | 292.13 J/K/mol
292.07 K | 282.87 J/K/mol
292.1 K | 293.31 J/K/mol
292.31 K | 293.26 J/K/mol
292.46 K | 294.11 J/K/mol
292.51 K | 284.12 J/K/mol
292.65 K | 291.23 J/K/mol
292.99 K | 292.66 J/K/mol
293.15 K | 293.46 J/K/mol
293.27 K | 294.35 J/K/mol
293.33 K | 294.9 J/K/mol
293.67 K | 295.88 J/K/mol
293.82 K | 293.83 J/K/mol
294.03 K | 294.9 J/K/mol and 295.65 J/K/mol
294.37 K | 295.73 J/K/mol
294.44 K | 295.25 J/K/mol
294.48 K | 285.79 J/K/mol
294.5 K | 295.03 J/K/mol
294.72 K | 294.11 J/K/mol
295.06 K | 293.36 J/K/mol
295.25 K | 295.78 J/K/mol
295.26 K | 286 J/K/mol
295.4 K | 295.15 J/K/mol
295.61 K | 296.03 J/K/mol
295.81 K | 299.05 J/K/mol
295.94 K | 296.5 J/K/mol
296.17 K | 298.85 J/K/mol
296.52 K | 298.75 J/K/mol
296.64 K | 295.93 J/K/mol
296.79 K | 296.15 J/K/mol
296.84 K | 287.36 J/K/mol
296.88 K | 296.35 J/K/mol
296.93 K | 297 J/K/mol
297.22 K | 297.15 J/K/mol
297.32 K | 296.23 J/K/mol
297.57 K | 297.23 J/K/mol
297.91 K | 299.05 J/K/mol
297.94 K | 297.85 J/K/mol
298 K | 296.85 J/K/mol
298.02 K | 287.88 J/K/mol
298.15 K | 288 J/K/mol
298.25 K | 298.42 J/K/mol
298.59 K | 299.17 J/K/mol
298.68 K | 299.05 J/K/mol
298.94 K | 299.4 J/K/mol
299.12 K | 298.65 J/K/mol
299.23 K | 288.76 J/K/mol
299.29 K | 300.47 J/K/mol
299.37 K | 298.15 J/K/mol
299.64 K | 299.5 J/K/mol
299.82 K | 299.2 J/K/mol
300 K | 289.3 J/K/mol
300.06 K | 299.2 J/K/mol
300.3 K | 299.45 J/K/mol
300.75 K | 298.85 J/K/mol
300.77 K | 289.98 J/K/mol
301.44 K | 299.02 J/K/mol
301.47 K | 300.17 J/K/mol
301.59 K | 289.49 J/K/mol
302.12 K | 300.57 J/K/mol
302.65 K | 301.05 J/K/mol
302.7 K | 301.5 J/K/mol
302.82 K | 300.42 J/K/mol
303.5 K | 300.72 J/K/mol
303.53 K | 291.77 J/K/mol
303.83 K | 301.92 J/K/mol
303.92 K | 292.06 J/K/mol
304.18 K | 301.47 J/K/mol
304.87 K | 301.52 J/K/mol
305.01 K | 302.77 J/K/mol
305.55 K | 302.32 J/K/mol
305.56 K | 303.47 J/K/mol
306.19 K | 303.64 J/K/mol
306.28 K | 293.59 J/K/mol
306.3 K | 293.93 J/K/mol and 304.42 J/K/mol
306.99 K | 304.54 J/K/mol
307.44 K | 304.69 J/K/mol
307.7 K | 304.19 J/K/mol
308.38 K | 304.52 J/K/mol
308.41 K | 305.57 J/K/mol
308.62 K | 305.54 J/K/mol
308.68 K | 295.75 J/K/mol
309.04 K | 295.5 J/K/mol
309.07 K | 305.39 J/K/mol
309.75 K | 305.67 J/K/mol
309.8 K | 305.39 J/K/mol
310 K | 296 J/K/mol
310.43 K | 305.52 J/K/mol
310.97 K | 306.74 J/K/mol
311.08 K | 296.13 J/K/mol
311.11 K | 306.24 J/K/mol
311.25 K | 307.59 J/K/mol
311.79 K | 306.69 J/K/mol
311.8 K | 297.26 J/K/mol
312.15 K | 307.81 J/K/mol
312.47 K | 307.31 J/K/mol
313.16 K | 307.84 J/K/mol
313.33 K | 308.96 J/K/mol
313.44 K | 298.8 J/K/mol
313.84 K | 308.56 J/K/mol
314.07 K | 309.84 J/K/mol
314.51 K | 309.76 J/K/mol
314.52 K | 309.11 J/K/mol
314.56 K | 298.99 J/K/mol
315.19 K | 310.48 J/K/mol
315.69 K | 310.88 J/K/mol
315.85 K | 300.25 J/K/mol
315.89 K | 310.18 J/K/mol
316.57 K | 310.56 J/K/mol
316.88 K | 312.41 J/K/mol and 311.61 J/K/mol
317.31 K | 309.31 J/K/mol
317.53 K | 300.52 J/K/mol
317.99 K | 311.11 J/K/mol
318.06 K | 312.53 J/K/mol
318.28 K | 301.47 J/K/mol
318.66 K | 311.58 J/K/mol
319.25 K | 313.46 J/K/mol
319.34 K | 313.53 J/K/mol
319.69 K | 314.25 J/K/mol
320 K | 302.2 J/K/mol
320.02 K | 313.28 J/K/mol
320.3 K | 302.56 J/K/mol
320.43 K | 313.61 J/K/mol
320.7 K | 312.78 J/K/mol
320.71 K | 302.82 J/K/mol
321.37 K | 314.2 J/K/mol
321.6 K | 312.51 J/K/mol
322.05 K | 315.53 J/K/mol
322.49 K | 315.5 J/K/mol
322.74 K | 316.33 J/K/mol
322.78 K | 316.4 J/K/mol
323.07 K | 304.17 J/K/mol
323.15 K | 304.37 J/K/mol
323.43 K | 315.9 J/K/mol
323.97 K | 317.18 J/K/mol
324.11 K | 315.95 J/K/mol
